# Earlier results in US20130345296A1, “Compositions Comprising a Taxane for Coating Medical Devices” (AVIDAL VASCULAR GMBH, priority 2010, published 2013).
# Experiments:
# microtubules = settings: in vitro studies; Rowinsky et al. (1990)
# [1] = tested on: leukemia, colon, breast, melanoma, sarcomas, and Lewis lung tumor systems; settings: Tarr et al. (1987); Horwitz (1992)
structure (smiles),measurement,setting,value
"CC(=O)O[C@H]1C(=O)[C@@]2(C)[C@H]([C@H](OC(=O)c3ccccc3)[C@]3(O)C[C@H](OC(=O)[C@H](O)[C@@H](NC(=O)c4ccccc4)c4ccccc4)C(C)=C1C3(C)C)[C@]1(OC(C)=O)CO[C@@H]1C[C@@H]2O [taxol, paclitaxel]",concentrations of taxol that stabilize microtubules,microtubules,0.1 to 10.0 µg/mL
same,activity against tumor systems,[1],active
